# Data as given in patent publication US20100226966A1, “Method for transdermal controlled release drug delivery” (priority 2009, published 2010).
# Tests used:
# [1] = Clinical dose-finding and bioavailability study, transdermal coated microprojection vs subcutaneous Forteo, PTH plasma levels and safety; format: in vivo, human (healthy, young females)
# Method: (§1) In this example, transdermal delivery of a PTH-based agent using a coated microprojection member was compared to conventional, subcutaneous delivery of teriparatide PTH (Forteo™). A dose-finding study was conducted with […], young females that received two treatments, separated by at least five days, according to randomly assigned sequence of 20 μg subcutaneous delivery of Forteo™ and 30 μg transdermal delivery of a PTH-based agent by coated microprojection. Bioavailability of transdermally delivered PTH was determined in 20 healthy, young females by administering two treatments, separated by at least five day, according to randomly assigned sequence of 40 μg subcutaneous delivery of Forteo™ and 30 μg transdermal delivery of a PTH-based agent by coated microprojection.
# In the dose-finding study, two participants dropped out, eleven subjects participated and eight generated usable data. It was determined that three subjects had measurable PTH plasma levels following subcutaneous injection and eight subjects had measurable PTH plasma levels following transdermal delivery.
# [2] = Pharmacokinetics of hPTH (1-34) after IV, SC and coated microprojection array administration in hairless guinea pig; format: in vivo; details: HGP; for dose absorbed/delivered: calculated against IV AUC
# [3] = Water solubility of PTH; format: physicochemical; details: at pH 5
# Source text: Referring now to FIG. 10, there is shown a superposition of the mole ratios for acetic acid and the neutral form of hPTH(1-34). […] At pH 5, negligible amounts of PTH are present as PTH zero net charge (PTH 0). The PTH is also highly soluble in water at concentrations in excess of 20%. During drying and subsequent storage, the free acetic acid will evaporate inherently resulting in formation of the water insoluble PTH 0. Subsequent reconstitution in water will not allow total solubilization of PTH. Accordingly, the use of a low volatility counterion provides a solid soluble formulation of PTH as long as the pH is maintained at least 2.5 pH units, preferably 3 pH units, below the pI of PTH. Preferably, this can be achieved by providing at least about two low volatility counterions to each molecule of PTH.
# [4] = test system: urinary cAMP; assay: Urinary cAMP excretion after transdermal vs subcutaneous PTH delivery; format: in vivo, human (healthy, young females); details: FIG. 15
# Method: as §1
# FIG. 12 further reflects a preferred pulsatile concentration profile of the PTH agent, i.e., rapid on-set and rapid off-set after reaching Cmax.
structure (smiles),measurement,setting,value
CC[C@H](C)[C@H](NC(=O)[C@H](CCC(=O)O)NC(=O)[C@H](CO)NC(=O)[C@@H](NC(=O)[C@@H](N)CO)C(C)C)C(=O)N[C@@H](CCC(N)=O)C(=O)N[C@@H](CC(C)C)C(=O)N[C@@H](CCSC)C(=O)N[C@@H](Cc1cnc[nH]1)C(=O)N[C@@H](CC(N)=O)C(=O)N[C@@H](CC(C)C)C(=O)NCC(=O)N[C@@H](CCCCN)C(=O)N[C@@H](Cc1cnc[nH]1)C(=O)N[C@@H](CC(C)C)C(=O)N[C@@H](CC(N)=O)C(=O)N[C@@H](CO)C(=O)N[C@@H](CCSC)C(=O)N[C@@H](CCC(=O)O)C(=O)N[C@@H](CCCN=C(N)N)C(=O)N[C@H](C(=O)N[C@@H](CCC(=O)O)C(=O)N[C@@H](Cc1c[nH]c2ccccc12)C(=O)N[C@@H](CC(C)C)C(=O)N[C@@H](CCCN=C(N)N)C(=O)N[C@@H](CCCCN)C(=O)N[C@@H](CCCCN)C(=O)N[C@@H](CC(C)C)C(=O)N[C@@H](CCC(N)=O)C(=O)N[C@@H](CC(=O)O)C(=O)N[C@H](C(=O)N[C@@H](Cc1cnc[nH]1)C(=O)N[C@@H](CC(N)=O)C(=O)N[C@@H](Cc1ccccc1)C(=O)O)C(C)C)C(C)C [hPTH (1-34)],subjects with measurable PTH plasma levels,"[1]; bioavailability study, subcutaneous delivery 40 μg, 20 subjects completed",15 subjects
same,subjects with measurable PTH plasma levels,"[1]; bioavailability study, transdermal delivery 30 μg, 20 subjects completed",20 subjects
same,subjects with measurable PTH plasma levels,"[1]; dose-finding study, subcutaneous injection 20 μg, eight subjects with usable data",three
same,subjects with measurable PTH plasma levels,"[1]; dose-finding study, transdermal delivery 30 μg, eight subjects with usable data",eight
same,Fraction dose absorbed/delivered (%),"[2]; IV, 22.5 μg",100%
same,dose absorbed/delivered,"[2]; SC, 19.5 μg",8.2 ± 2.9 µg
same,Cmax,"[2]; hairless, guinea pig, plasma, 22.5 ug, IV",11.2 ng/mL
same,dose absorbed/delivered,"[2]; microprojection array, 40.0 μg",6.6 ± 1.8 µg
same,solubility in water (concentration),[3],> 20%
same,biological activity as evidenced by urinary cAMP excretion,[4],comparable to that following subcutaneous delivery
